Legend:
[1] = test system: nontransgenic callus tissues of Golden Promise; assay: Regeneration via an intermediate-incubation step, nontransgenic callus; assay type: cell-based, barley; conditions: two-month-old callus of Golden Promise maintained on CIM containing the auxin alone
Protocol: Callus induction was performed as described above using CIM with 2.5 mg/L of 2,4-D or dicamba (no cytokinin). After incubation for three weeks at 24±1° C. in the dark, callus was cut into small pieces (about 3 to 4 mm), then maintained on the same medium with subculturing at three-week intervals.
Ten pieces of two-month-old nontransgenic calli grown on CIM supplemented with either 2,4-D or dicamba in the dark were transferred to RM either directly or following incubation on an IIM.
Two different IIM were used, DBC2 and DBC3. DBC2 medium is CIM containing 2.5 mg/L 2,4-D, 0.1 mg/L BAP, and 5.0 μM copper (cupric sulfate). DBC3 medium is CIM containing 1.0 mg/L 2,4-D, 0.5 mg/L BAP, and 5.0 μM copper. After growing calli on these media for 3-4 weeks under dim light conditions (20 to 30 μE; 16 h light/8 h dark), the numbers of calli producing green sectors or green regenerative structures were counted. Green sectors and small green regenerative structures were then transferred to fresh RM and grown under higher light intensity (45-55 μE). After 3-4 weeks, the numbers of green shoots per callus piece were counted. […]

Galena immature embryos = assay: Callus-induction frequency on callus-induction media (CIM); assay type: cell-based, barley (Hordeum vulgare L.); conditions: Galena half embryos on CIM; 2 to 3 weeks after initial culturing; means ± SD of three replicates
Protocol: (§1) Immature embryos (about 1.5-2.5 mm in size) were taken from spikes approximately three months in age that were surface-sterilized in 20% (v/v) bleach (5.25% sodium hypochlorite) for 7 min. washed 5 min with sterile water three times, bisected longitudinally, and placed on CIM. Ten half-embryos were tested on CIM supplemented with each of the fourteen phytohormone combinations; each treatment had three replicates. (Whole embryos can also be used.) Callus-induction frequency was measured by counting numbers of half embryos undergoing callus induction under a light microscope 2 to 3 weeks after initial culturing.
(§2) Immature zygotic embryos about 1.5 to 2.5 mm in size were dissected and isolated intact under a stereo dissecting microscope from seeds that were surface-sterilized for 10 min in 20% (v/v) bleach (5.25% sodium hypochlorite) followed by three washes in sterile water. The embryos were placed scutellum-side down on CIM.
(§3) Six different CIMs were used to test callus-induction frequencies and callus quality. The CIMs had, respectively, different concentrations of: 2,4-D (1.0 and 2.5 mg/L), BAP (0.01, 0.1 and 0.5 mg/L), and cupric sulfate (CuSO4; 0.1 and 5.0 μM) as shown in Table 7.
(§4) The initial callus-induction frequency was determined using CIM of different compositions. Ten immature embryos from the barley genotypes Golden Promise and Galena were transferred to each CIM. Each CIM contained the following levels of hormones and copper: D, 2.5 mg/L 2,4-D and 0.1 μM CuSO4; DC, 2.5 mg/L 2,4-D and 5.0 μM CuSO4; DB, 2.5 mg/L 2,4-D, 0.1 mg/L BAP, 0.1 μM CuSO4; DBC1, 2.5 mg/L 2,4-D, 0.01 mg/L BAP and 5.0 μM CuSO4; DBC2, 2.5 mg/L 2,4-D, 0.1 mg/L BAP and 5.0 μM CuSO4; DBC3, 1.0 mg/L 2,4-D, 0.5 mg/L BAP and 5.0 μM CuSO4. Callus quality was assessed microscopically and scored on a scale with ++++ designating highest quality and +designating lowest quality. Values were measured three weeks after initial callus induction and represent means of three replicates for each treatment. […] Tissue quality was poor on CIM containing BAP three weeks after induction but improved after two to three transfers on this medium. Only a fraction of scutellar tissues on Galena immature embryos formed callus, while most of the scutellar surface on Golden Promise immature embryos formed high-quality callus.

[2] = test system: Golden Promise immature embryos; assay: as above; assay type: cell-based, barley (Hordeum vulgare L.); conditions: Golden Promise half embryos on CIM; 2 to 3 weeks after initial culturing; means ± SD of three replicates
Protocol: as §1, §2, §3, §4

calli of Golden Promise = assay: Regenerability of calli from twelve callus-induction media (auxin types, copper); assay type: cell-based, barley
Protocol: (§5) To examine the effects of different types of auxins and concentrations of copper on callus quality and regenerability in barley, twelve different media were tested, using methods essentially as described in Example 2 above.

[3] = test system: Golden Promise immature embryos; assay: Callus quality on twelve callus-induction media (auxin types, copper); assay type: cell-based, barley
Protocol: as §5

[4] = test system: green tissue of Golden Promise, Galena and Harrington; assay: Selection and regeneration of bombarded green tissues with selective agents; assay type: cell-based; conditions: bombarded barley green tissues under selection
Protocol: The green regenerative tissues generated and maintained on one or two of these media, DBC2 (comprising 2.5 mg/L 2,4-D, 0.1 mg/L BAP and 5.0 μM CuSO4, Cho et al., 1998) or DBC3 (comprising 1.0 mg/L 2,4-D, 0.5 mg/L BAP and 5.0 μM CuSO4, Cho et al., 1998), were used directly as transformation targets. For bombardment, 3 to 4 mm pieces of green tissue of Golden Promise, Galena and Harrington, removed 3 to 4 months after initiation of the original culture, were osmotically treated on DBC2 or DBC3 medium and bombarded the same day with three different selection constructs, ubi-bar/ubi-uidA, ubi-nptII/ubi-uidA and act-hpt/ubi-uidA. […] Sixteen to 18 hr post-bombardment, green tissues were transferred without osmoticum or selective agent to dim light on DBC2 or DBC3 medium for Golden Promise and Harrington or DBC3 for Galena. Selection with all agents started […] post-bombardment to allow for proliferation of transformed cells in the absence of the cell death resulting from wounding or selection. At that time, tissue was broken into pieces (3-5 mm) and transferred to either DBC2 or DBC3 medium (depending on morphology) with 3 mg/L bialaphos (bar), 20-25 mg/L hygromycin B (hpt) or 30 mg/L G418 (nptII), depending on the construct used. Starting with the third round of selection, levels of selective agent were increased to 45 mg/L bialaphos, 25 mg/L hygromycin B or 40 mg/L G418. […]

Compound	green shoots per callus piece [1]	Callus Induction Frequency (%) GAL (Galena immature embryos) [%]	Callus Induction Frequency (%) GP [2] [%]	induction of calli which regenerated green plants (calli of Golden Promise)	albino plants during regeneration of selected tissues [4]	further results
O=C(O)COc1ccc(Cl)cc1Cl [2,4-D, 2,4-dichlorophenoxyacetic acid]	0.35	~100	~100	–	–	–
O=C(O)Cc1c[nH]c2ccccc12 [IAA]	–	–	–	Neither IAA nor NAA was optimal	–	callus quality [3]: poorer callus quality than the other auxins
O=C(O)Cc1cccc2ccccc12 [NAA]	–	–	–	Neither IAA nor NAA was optimal	–	–
C[C@H](NC(=O)[C@H](C)NC(=O)[C@@H](N)CCP(C)(=O)O)C(=O)O [bialaphos]	–	–	–	–	no albino plants were observed	–
COc1c(Cl)ccc(Cl)c1C(=O)O [dicamba]	1.15	~100	~100	–	–	–
CN[C@H]1C[C@@H](N)[C@H](O)[C@@H](O[C@@H]2O[C@H](CO)[C@H](O)[C@@H]3OC4(O[C@H]23)O[C@H]([C@@H](N)CO)[C@H](O)[C@H](O)[C@H]4O)[C@@H]1O (some centres unmarked) [hygromycin B]	–	–	–	–	frequently albino plants were observed	–

From patent US7102056B1, “Compositions and methods for plant transformation and regeneration” (The Regents of the University of California, priority 1997, dated 2006)
